{"source": "patent US6503939B2", "about": "“Combination regimens using 3,3-substituted indoline derivatives” (Wyeth, priority 1999, dated 2003)"}
{"compound": "CC1Nc2ccc(-c3cccc([N+](=O)[O-])c3)cc2C1(C)C.Cl", "note": "(stereo not shown)", "values": [{"measurement": "melting point", "value": "240 to 241", "unit": "°C"}]}
